Source: ChEMBL document CHEMBL1201862, “PubChem BioAssay data set” (2004)
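In this assay, cells in 96-well plates receive the compound at five concentrations for 48 hours. Endpoints are linearly interpolated between the surrounding concentrations. GI50 marks 50% less growth.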 Active and inactive are the calls of the source. Cut-off read from the data, not from the text of the source: active = GI50 up to about 1.1 µM and inactive = higher.

Columns and labels:
Assay in all cases: inhibition of tumour cell growth, NCI panel, 48 h
[1] = system: A498
[2] = system: SNB-75
[3] = system: LOX IMVI
[4] = system: NCI-H460
[5] = system: UO-31
[6] = system: SF-268
[7] = system: SN12C
[8] = system: SK-MEL-5
[9] = system: NCI-H23
[10] = system: UACC-62
[11] = system: OVCAR-4
[12] = system: HCC 2998
[13] = system: SK-MEL-2
[14] = system: HOP-62
[15] = system: KM12
[16] = system: SF-539

| SMILES | GI50 [1] | GI50 [2] | GI50 [3] | GI50 [4] | GI50 [5] | GI50 [6] | GI50 [7] | GI50 [8] | GI50 [9] | GI50 [10] | GI50 [11] | GI50 [12] | GI50 [13] | GI50 [14] | GI50 [15] | GI50 [16] |
| --- | --- | --- | --- | --- | --- | --- | --- | --- | --- | --- | --- | --- | --- | --- | --- | --- |
| CC(=O)OC(C)(C)/C=C/C(=O)[C@](C)(O)[C@H]1[C@H](O)C[C@@]2(C)[C@@H]3CC=C4[C@@H](C[C@H](O)[C@H](O)C4(C)C)[C@]3(C)C(=O)C[C@]12C | 0.853 µM (active) | 0.261 µM (active) | 0.303 µM (active) | 1.07 µM (active) | 0.839 µM (active) | 0.397 µM (active) | 0.401 µM (active) | 0.701 µM (active) | 0.324 µM (active) | 0.48 µM (active) | 0.331 µM (active) | 0.822 µM (active) | 0.752 µM (active) | 1.51 µM (inactive) | 0.467 µM (active) | 0.303 µM (active) |
| C/C(O)=C1\CC2CN3CCc4c([nH]c5ccccc45)C3CC2CC1=O (configuration not stated) | > 100 µM (inactive) | 21.4 µM (inactive) | 26.1 µM (inactive) | > 100 µM (inactive) | 37.9 µM (inactive) | 54.6 µM (inactive) | 71.1 µM (inactive) | 55.2 µM (inactive) | 92 µM (inactive) | – | 46 µM (inactive) | 58.9 µM (inactive) | 43 µM (inactive) | > 100 µM (inactive) | > 100 µM (inactive) | 75.2 µM (inactive) |
| CC(C)(C)N/N=C(\C(=O)Nc1nnc(S)[nH]1)C1C(=O)Nc2ccccc2[S+]1[O-] (configuration not stated) | > 100 µM (inactive) | > 100 µM (inactive) | > 100 µM (inactive) | > 100 µM (inactive) | > 100 µM (inactive) | > 100 µM (inactive) | > 100 µM (inactive) | > 100 µM (inactive) | > 100 µM (inactive) | > 100 µM (inactive) | > 100 µM (inactive) | > 100 µM (inactive) | > 100 µM (inactive) | > 100 µM (inactive) | > 100 µM (inactive) | > 100 µM (inactive) |
| N#C/N=C1\NC(Cc2ccccc2)C(=O)N1CCc1c[nH]c2ccccc12 (configuration not stated) | – | 8.87 µM (inactive) | 35.2 µM (inactive) | – | 24 µM (inactive) | 15.7 µM (inactive) | 29.9 µM (inactive) | 17.8 µM (inactive) | 35.7 µM (inactive) | 23.2 µM (inactive) | 25.5 µM (inactive) | 19.8 µM (inactive) | – | 28.1 µM (inactive) | 29.4 µM (inactive) | 29.6 µM (inactive) |
| O=C(NC(=O)c1cc2cc(Br)cc(Br)c2oc1=O)Oc1ccccc1 | > 100 µM (inactive) | 13.7 µM (inactive) | 63.2 µM (inactive) | > 100 µM (inactive) | > 100 µM (inactive) | > 100 µM (inactive) | 61.2 µM (inactive) | > 100 µM (inactive) | > 100 µM (inactive) | 50.7 µM (inactive) | > 100 µM (inactive) | > 100 µM (inactive) | – | 43.7 µM (inactive) | 93.8 µM (inactive) | 87.3 µM (inactive) |
| Cc1cc(C)nc(NS(=O)(=O)c2ccc(NC(=O)c3cccc4c(Nc5ccc(S(=O)(=O)N=C(N)N)cc5)c5ccc(Cl)cc5nc34)cc2)n1 | > 100 µM (inactive) | > 100 µM (inactive) | 19.8 µM (inactive) | 42.8 µM (inactive) | 41.8 µM (inactive) | 41 µM (inactive) | 29.8 µM (inactive) | – | 30.8 µM (inactive) | 34.4 µM (inactive) | – | 19.8 µM (inactive) | – | 43.7 µM (inactive) | 30.5 µM (inactive) | 17.2 µM (inactive) |
| COc1ccc(C2S/C(=C\c3ccccc3)C(=O)N2NC(=O)Cc2ccccc2)cc1 (configuration not stated) | > 100 µM (inactive) | > 100 µM (inactive) | > 100 µM (inactive) | > 100 µM (inactive) | > 100 µM (inactive) | > 100 µM (inactive) | > 100 µM (inactive) | > 100 µM (inactive) | > 100 µM (inactive) | > 100 µM (inactive) | > 100 µM (inactive) | – | > 100 µM (inactive) | > 100 µM (inactive) | > 100 µM (inactive) | > 100 µM (inactive) |
| Cc1cccc(C(C)(C)C)c1NC(=O)CC1C(=O)Nc2ccccc2S1(=O)=O (configuration not stated) | 14.9 µM (inactive) | 12.5 µM (inactive) | 5.98 µM (inactive) | 11 µM (inactive) | 11.2 µM (inactive) | 11.2 µM (inactive) | 12.3 µM (inactive) | 12.1 µM (inactive) | 5.38 µM (inactive) | 5.06 µM (inactive) | 11.4 µM (inactive) | 8.11 µM (inactive) | 9.12 µM (inactive) | – | – | 3.14 µM (inactive) |
| COC(=O)[C@H]1COC(=S)N1C(=O)[C@@H](C)[C@H](O)C(C)C | > 100 µM (inactive) | 42 µM (inactive) | 57.4 µM (inactive) | > 100 µM (inactive) | > 100 µM (inactive) | > 100 µM (inactive) | > 100 µM (inactive) | > 100 µM (inactive) | > 100 µM (inactive) | > 100 µM (inactive) | > 100 µM (inactive) | > 100 µM (inactive) | > 100 µM (inactive) | > 100 µM (inactive) | > 100 µM (inactive) | > 100 µM (inactive) |
| O=C(CCc1nnc(S)[nH]1)Nc1cc(Cl)ccc1Cl | > 100 µM (inactive) | 37.9 µM (inactive) | – | > 100 µM (inactive) | > 100 µM (inactive) | > 100 µM (inactive) | > 100 µM (inactive) | > 100 µM (inactive) | > 100 µM (inactive) | > 100 µM (inactive) | > 100 µM (inactive) | > 100 µM (inactive) | > 100 µM (inactive) | > 100 µM (inactive) | > 100 µM (inactive) | > 100 µM (inactive) |
| COC(=O)C(C(=O)C(=O)Nc1ccc(N)cc1[N+](=O)[O-])c1nc2ccc(Cl)cc2nc1O (configuration not stated) | > 100 µM (inactive) | 32.4 µM (inactive) | > 100 µM (inactive) | > 100 µM (inactive) | 41 µM (inactive) | 72.9 µM (inactive) | > 100 µM (inactive) | 95.5 µM (inactive) | > 100 µM (inactive) | > 100 µM (inactive) | > 100 µM (inactive) | > 100 µM (inactive) | > 100 µM (inactive) | > 100 µM (inactive) | > 100 µM (inactive) | > 100 µM (inactive) |
| O=C(CC1Sc2ccccc2NC1=O)Nc1cc(Cl)ccc1Cl (configuration not stated) | > 100 µM (inactive) | 33.4 µM (inactive) | > 100 µM (inactive) | > 100 µM (inactive) | > 100 µM (inactive) | > 100 µM (inactive) | > 100 µM (inactive) | > 100 µM (inactive) | > 100 µM (inactive) | > 100 µM (inactive) | > 100 µM (inactive) | > 100 µM (inactive) | > 100 µM (inactive) | – | – | 92.3 µM (inactive) |
| COC(=O)C(c1n[nH]c2ccccc12)C(C(=O)OC)c1n[nH]c2ccccc12 (configuration not stated) | > 100 µM (inactive) | 50.1 µM (inactive) | 68.2 µM (inactive) | 58.3 µM (inactive) | > 100 µM (inactive) | > 100 µM (inactive) | 31.1 µM (inactive) | – | 30.9 µM (inactive) | 61.1 µM (inactive) | 18.8 µM (inactive) | > 100 µM (inactive) | – | > 100 µM (inactive) | > 100 µM (inactive) | 17 µM (inactive) |
| Nc1ccc(C(c2ccccc2)(c2ccccc2)c2ccccc2)cc1 | > 100 µM (inactive) | 13.5 µM (inactive) | 47.6 µM (inactive) | 28.8 µM (inactive) | – | 99.3 µM (inactive) | 66.5 µM (inactive) | 42.2 µM (inactive) | 30.1 µM (inactive) | 16.5 µM (inactive) | 24.7 µM (inactive) | > 100 µM (inactive) | > 100 µM (inactive) | 27.9 µM (inactive) | 55.6 µM (inactive) | 37 µM (inactive) |
| COc1ccc(C2C(Cl)C(=O)N2NC(=O)c2ccc(NC(C)=O)cc2)cc1 (configuration not stated) | > 100 µM (inactive) | > 100 µM (inactive) | > 100 µM (inactive) | > 100 µM (inactive) | > 100 µM (inactive) | > 100 µM (inactive) | > 100 µM (inactive) | > 100 µM (inactive) | > 100 µM (inactive) | > 100 µM (inactive) | > 100 µM (inactive) | – | > 100 µM (inactive) | > 100 µM (inactive) | – | > 100 µM (inactive) |
| O=C1c2ccccc2-c2ccccc2C(=O)C1(Br)Br | 16.6 µM (inactive) | 12.9 µM (inactive) | 9.27 µM (inactive) | 19.1 µM (inactive) | 14.4 µM (inactive) | 14.2 µM (inactive) | 11.8 µM (inactive) | 17.3 µM (inactive) | 13.4 µM (inactive) | 7.36 µM (inactive) | 13.7 µM (inactive) | 18.2 µM (inactive) | 9.75 µM (inactive) | 18.2 µM (inactive) | 17.7 µM (inactive) | 9.51 µM (inactive) |
| Cc1c(C(=O)CC(=O)C(=O)Nc2ccc(Cl)cc2)[n+]([O-])c2ccccc2[n+]1[O-] | > 100 µM (inactive) | 18.7 µM (inactive) | – | > 100 µM (inactive) | > 100 µM (inactive) | > 100 µM (inactive) | > 100 µM (inactive) | > 100 µM (inactive) | > 100 µM (inactive) | > 100 µM (inactive) | > 100 µM (inactive) | – | > 100 µM (inactive) | – | > 100 µM (inactive) | > 100 µM (inactive) |
| COc1ccc2c(c1)CN1CCc3c(cc(OC)c(OC)c3OC)C1C2 (configuration not stated) | – | > 100 µM (inactive) | – | – | > 100 µM (inactive) | > 100 µM (inactive) | > 100 µM (inactive) | 36.5 µM (inactive) | > 100 µM (inactive) | 74.1 µM (inactive) | > 100 µM (inactive) | > 100 µM (inactive) | > 100 µM (inactive) | > 100 µM (inactive) | – | > 100 µM (inactive) |
